Target: Enoyl acyl carrier protein (ACP) reductase (InhA) (Mycobacterium tuberculosis, UniProt P9WGR1)
Experiment: colorimetric InhA assay, NADH oxidation at […] nm with 2-trans-octanoyl-CoA
Assay type: biochemical

Chain of Enoyl acyl carrier protein (ACP) reductase (InhA) (P9WGR1 whole entry, looked up): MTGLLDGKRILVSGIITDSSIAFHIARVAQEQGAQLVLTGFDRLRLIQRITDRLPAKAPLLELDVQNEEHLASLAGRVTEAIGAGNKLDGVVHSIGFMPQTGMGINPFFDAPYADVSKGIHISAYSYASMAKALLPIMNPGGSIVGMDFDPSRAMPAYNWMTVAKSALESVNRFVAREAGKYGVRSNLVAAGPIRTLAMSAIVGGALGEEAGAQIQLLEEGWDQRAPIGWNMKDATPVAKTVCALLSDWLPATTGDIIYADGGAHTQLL

Compound	IC50
C/C(=N\NS(=O)(=O)c1ccc(C)cc1)c1c(O)c2ccccc2oc1=O [compound 3]	1620 ± 690 nM
CC(=NNS(=O)(=O)c1ccc(C)cc1)c1ccccn1 [compound 7]	910 ± 30 nM
